Experimental data published in patent US9340590B2 (priority 2011, dated 2016).
Like-named read-outs stand apart in the source and are kept apart here. Positions of bridges follow the written chain, without caps; N, C: chain ends. Non-standard residues stand in square brackets, D forms with d. Residues, ends and D or L forms follow the SMILES beside them. 1Nal = N[C@@H](Cc1cccc2ccccc12)C(=O)O; Gly(octyl) = CCCCCCCC[C@H](N)C(=O)O; 2Pal = N[C@@H](Cc1ccccn1)C(=O)O

How the values were obtained:
Assay in all cases: cell-based
hNav1.5 = hNav1.5 (Homo sapiens, UniProt Q14524)
hNav1.7 = hNav1.7 (Homo sapiens, UniProt Q15858); format: cell-based; settings: IonWorks Quattro, read-out: IWQ Use Nav1.7
hNav1.3 = hNav1.3 (Homo sapiens, UniProt Q9NY46); settings: IonWorks Quattro, read-out: IWQ Use Nav1.3
[1] = clamped to −110 mV, depolarized to −10 mV, 5 min after compound, n=2
[2] = IonWorks Quattro, use-dependent block, hNav1.5, read-out: IWQ Use Nav1.5
[3] = IonWorks Quattro, Use, read-out: IWQ Use Nav1.5

hNav1.7, sequence (Q15858 whole entry, looked up): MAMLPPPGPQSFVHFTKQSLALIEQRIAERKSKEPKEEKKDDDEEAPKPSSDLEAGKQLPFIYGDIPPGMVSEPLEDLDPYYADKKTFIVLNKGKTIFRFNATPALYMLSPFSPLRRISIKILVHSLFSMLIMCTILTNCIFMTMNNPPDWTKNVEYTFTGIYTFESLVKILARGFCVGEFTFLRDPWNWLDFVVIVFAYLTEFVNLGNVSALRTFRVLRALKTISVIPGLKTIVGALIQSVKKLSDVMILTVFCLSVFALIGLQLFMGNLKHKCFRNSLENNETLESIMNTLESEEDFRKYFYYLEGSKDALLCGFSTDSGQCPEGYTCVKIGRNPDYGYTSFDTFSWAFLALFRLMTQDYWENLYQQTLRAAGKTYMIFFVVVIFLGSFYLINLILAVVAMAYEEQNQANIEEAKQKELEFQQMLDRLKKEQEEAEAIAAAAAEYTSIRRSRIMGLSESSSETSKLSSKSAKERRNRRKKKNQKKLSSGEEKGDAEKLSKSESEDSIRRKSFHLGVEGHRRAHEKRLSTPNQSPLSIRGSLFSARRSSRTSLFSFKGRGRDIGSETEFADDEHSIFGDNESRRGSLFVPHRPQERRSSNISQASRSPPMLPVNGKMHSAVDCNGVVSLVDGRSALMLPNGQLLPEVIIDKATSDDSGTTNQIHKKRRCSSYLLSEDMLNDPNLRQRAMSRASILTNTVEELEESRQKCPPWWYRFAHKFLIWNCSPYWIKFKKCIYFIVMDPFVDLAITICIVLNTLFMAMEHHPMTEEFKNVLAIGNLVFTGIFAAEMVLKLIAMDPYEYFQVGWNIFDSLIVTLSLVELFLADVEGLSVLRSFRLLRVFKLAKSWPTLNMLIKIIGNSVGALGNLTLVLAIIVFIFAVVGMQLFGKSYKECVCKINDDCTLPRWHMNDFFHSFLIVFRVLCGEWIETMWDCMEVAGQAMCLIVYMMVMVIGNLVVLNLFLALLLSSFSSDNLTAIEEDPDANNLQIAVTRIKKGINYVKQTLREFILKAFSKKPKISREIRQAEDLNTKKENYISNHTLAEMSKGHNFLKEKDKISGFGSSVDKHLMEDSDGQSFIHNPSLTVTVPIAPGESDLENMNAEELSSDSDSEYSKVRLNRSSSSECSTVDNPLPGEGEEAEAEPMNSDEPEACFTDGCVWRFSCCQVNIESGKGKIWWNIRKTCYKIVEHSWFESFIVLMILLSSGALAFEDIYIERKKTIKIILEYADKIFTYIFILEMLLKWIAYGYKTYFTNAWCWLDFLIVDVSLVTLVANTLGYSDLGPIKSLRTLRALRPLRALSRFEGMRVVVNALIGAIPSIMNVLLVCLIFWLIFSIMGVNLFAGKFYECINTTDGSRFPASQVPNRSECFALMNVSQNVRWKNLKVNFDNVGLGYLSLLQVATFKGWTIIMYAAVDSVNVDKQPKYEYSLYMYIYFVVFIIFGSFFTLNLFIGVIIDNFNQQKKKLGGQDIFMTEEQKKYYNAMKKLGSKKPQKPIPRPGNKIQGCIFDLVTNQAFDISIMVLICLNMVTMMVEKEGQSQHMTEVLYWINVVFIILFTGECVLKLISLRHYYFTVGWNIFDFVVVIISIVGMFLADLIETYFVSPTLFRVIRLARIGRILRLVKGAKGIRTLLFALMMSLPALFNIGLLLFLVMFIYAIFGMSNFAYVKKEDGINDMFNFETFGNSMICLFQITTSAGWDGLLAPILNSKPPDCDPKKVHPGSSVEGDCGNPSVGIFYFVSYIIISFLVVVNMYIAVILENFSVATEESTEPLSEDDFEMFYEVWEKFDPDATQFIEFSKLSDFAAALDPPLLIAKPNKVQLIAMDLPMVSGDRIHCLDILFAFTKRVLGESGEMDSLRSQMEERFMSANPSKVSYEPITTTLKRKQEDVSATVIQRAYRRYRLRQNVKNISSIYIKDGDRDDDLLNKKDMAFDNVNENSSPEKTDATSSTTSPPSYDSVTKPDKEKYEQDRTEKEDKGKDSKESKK
hNav1.3, sequence (Q9NY46 whole entry, looked up): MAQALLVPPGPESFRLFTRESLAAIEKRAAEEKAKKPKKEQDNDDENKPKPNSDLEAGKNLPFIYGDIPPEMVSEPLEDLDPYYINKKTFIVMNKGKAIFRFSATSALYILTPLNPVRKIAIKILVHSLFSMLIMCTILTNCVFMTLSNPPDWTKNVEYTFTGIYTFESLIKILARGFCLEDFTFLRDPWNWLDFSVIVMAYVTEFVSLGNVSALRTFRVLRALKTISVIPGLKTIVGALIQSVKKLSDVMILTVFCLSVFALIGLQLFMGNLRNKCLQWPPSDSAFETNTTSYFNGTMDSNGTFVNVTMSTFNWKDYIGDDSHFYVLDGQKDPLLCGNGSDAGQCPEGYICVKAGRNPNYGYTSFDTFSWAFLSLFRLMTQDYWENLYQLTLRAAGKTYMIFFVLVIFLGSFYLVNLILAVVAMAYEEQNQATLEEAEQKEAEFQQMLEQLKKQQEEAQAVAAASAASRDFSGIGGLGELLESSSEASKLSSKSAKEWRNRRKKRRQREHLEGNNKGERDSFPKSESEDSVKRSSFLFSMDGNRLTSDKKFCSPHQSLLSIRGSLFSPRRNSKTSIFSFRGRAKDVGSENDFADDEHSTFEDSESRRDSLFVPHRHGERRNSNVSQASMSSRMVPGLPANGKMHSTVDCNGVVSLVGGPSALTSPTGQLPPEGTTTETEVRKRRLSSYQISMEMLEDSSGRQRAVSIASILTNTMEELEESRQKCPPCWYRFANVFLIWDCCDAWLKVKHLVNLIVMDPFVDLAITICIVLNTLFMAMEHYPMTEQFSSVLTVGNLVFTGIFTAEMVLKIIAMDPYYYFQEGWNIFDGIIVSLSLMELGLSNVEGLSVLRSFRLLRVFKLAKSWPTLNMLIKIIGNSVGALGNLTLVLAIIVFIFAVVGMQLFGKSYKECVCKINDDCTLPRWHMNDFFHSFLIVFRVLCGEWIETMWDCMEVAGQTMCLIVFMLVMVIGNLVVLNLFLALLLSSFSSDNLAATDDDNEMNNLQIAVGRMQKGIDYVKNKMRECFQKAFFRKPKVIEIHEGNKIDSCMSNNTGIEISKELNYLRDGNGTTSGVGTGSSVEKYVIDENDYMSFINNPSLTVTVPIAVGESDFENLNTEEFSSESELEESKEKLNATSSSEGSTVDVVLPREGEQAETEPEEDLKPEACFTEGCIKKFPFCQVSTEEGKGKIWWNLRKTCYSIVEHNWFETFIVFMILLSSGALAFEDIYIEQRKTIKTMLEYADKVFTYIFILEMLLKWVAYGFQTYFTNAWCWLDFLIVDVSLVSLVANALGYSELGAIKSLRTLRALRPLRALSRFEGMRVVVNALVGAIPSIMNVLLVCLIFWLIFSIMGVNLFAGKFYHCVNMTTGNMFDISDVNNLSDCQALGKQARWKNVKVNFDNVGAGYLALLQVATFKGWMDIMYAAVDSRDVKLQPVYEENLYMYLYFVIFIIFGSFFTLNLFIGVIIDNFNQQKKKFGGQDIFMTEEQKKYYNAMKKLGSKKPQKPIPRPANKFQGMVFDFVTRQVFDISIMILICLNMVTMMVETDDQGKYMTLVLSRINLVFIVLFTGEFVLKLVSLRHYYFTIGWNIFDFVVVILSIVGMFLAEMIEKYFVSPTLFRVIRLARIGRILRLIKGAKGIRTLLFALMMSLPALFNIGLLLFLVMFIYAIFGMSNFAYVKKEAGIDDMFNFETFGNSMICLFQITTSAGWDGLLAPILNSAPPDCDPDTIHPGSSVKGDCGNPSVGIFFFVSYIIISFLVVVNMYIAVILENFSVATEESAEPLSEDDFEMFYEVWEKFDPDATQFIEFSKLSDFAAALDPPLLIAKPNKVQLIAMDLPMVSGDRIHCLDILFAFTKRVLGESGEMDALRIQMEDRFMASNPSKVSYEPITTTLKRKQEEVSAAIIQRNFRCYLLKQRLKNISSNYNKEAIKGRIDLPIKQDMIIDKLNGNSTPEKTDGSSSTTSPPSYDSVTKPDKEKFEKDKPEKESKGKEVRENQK

CC[C@H](C)[C@@H]1NC(=O)[C@@H]2CSSC[C@@H]3NC(=O)[C@H](C(C)C)NC(=O)[C@H](CC(C)C)NC(=O)[C@H](CC(N)=O)NC(=O)[C@@H]4CCCN4C(=O)[C@H](CCCNC(=N)N)NC(=O)[C@H](CSSC[C@H](NC(=O)[C@@H](N)CC(=O)O)C(=O)N[C@@H](CC(C)C)C(=O)NCC(=O)N[C@@H](Cc4ccccc4)C(=O)N[C@@H](CCSC)C(=O)N[C@@H](CCCNC(=N)N)C(=O)N[C@@H](CCCCN)C(=O)N2)NC(=O)[C@H](CSSC[C@@H](C(=O)N[C@@H](CCCCN)C(=O)N[C@@H](Cc2ccc(O)cc2)C(=O)N[C@H](C(=O)N[C@@H](Cc2ccccc2)C(N)=O)C(C)C)NC(=O)[C@H](Cc2c[nH]c4ccccc24)NC(=O)[C@H](CCCCN)NC(=O)[C@H](Cc2c[nH]cn2)NC(=O)[C@H](CC(N)=O)NC(=O)[C@H](CCCNC(=N)N)NC(=O)[C@H](CO)NC3=O)NC(=O)[C@H](CCCCN)NC(=O)[C@H](CC(=O)O)NC(=O)[C@H](CC(N)=O)NC(=O)[C@H](CC(=O)O)NC(=O)[C@@H]2CCCN2C1=O [compound 342] (H-DCLGFMRKCIPDNDKCCRPNLVCSRNHKWCKYVF-NH2; disulfide 2-17, 9-23, 16-30)
IC50 (hNav1.5; Table 22, IonWorks Quattro, use, […], read-out: IWQ Use Nav1.5): 6.29 µM
IC50 (hNav1.7; Table 22, use, […]): 90 nM
IC50 (hNav1.3; Table 22, use, […]): 100 nM

CC[C@H](C)[C@@H]1NC(=O)[C@@H]2CSSC[C@@H]3NC(=O)[C@H](C(C)C)NC(=O)[C@H](CC(C)C)NC(=O)[C@H](CC(N)=O)NC(=O)[C@@H]4CCCN4C(=O)[C@H](CCCNC(=N)N)NC(=O)[C@H](CSSC[C@H](NC(=O)[C@@H](N)CC(=O)O)C(=O)N[C@@H](CC(C)C)C(=O)NCC(=O)N[C@@H](Cc4ccccc4)C(=O)N[C@@H](c4ccccc4)C(=O)N[C@@H](CCCNC(=N)N)C(=O)N[C@@H](CCCCN)C(=O)N2)NC(=O)[C@H](CSSC[C@@H](C(=O)N[C@@H](CCCCN)C(=O)N[C@@H](Cc2ccc(O)cc2)C(=O)N[C@H](C(=O)N[C@@H](Cc2ccccc2)C(N)=O)C(C)C)NC(=O)[C@H](Cc2c[nH]c4ccccc24)NC(=O)[C@H](CCCCN)NC(=O)[C@H](Cc2c[nH]cn2)NC(=O)[C@H]([C@@H](C)O)NC(=O)[C@H](CCCNC(=N)N)NC(=O)[C@H](CO)NC3=O)NC(=O)[C@H](CCCCN)NC(=O)[C@H](CC(=O)O)NC(=O)[C@H](CC(N)=O)NC(=O)[C@H](CC(=O)O)NC(=O)[C@@H]2CCCN2C1=O [SEQ ID NO: 288]
IC50 (hNav1.5; IonWorks Quattro, clamped to −110 mV, depolarized to −10 mV, 5 min after compound, n=2, read-out: IWQ Use Nav1.5): > 5 µM
IC50 (hNav1.7; [1]): 150 nM
IC50 (hNav1.3; [1]): 90 nM

CC[C@H](C)[C@@H]1NC(=O)[C@@H]2CSSC[C@@H]3NC(=O)[C@H](C(C)C)NC(=O)[C@H](CC(C)C)NC(=O)[C@H](CC(N)=O)NC(=O)[C@@H]4CCCN4C(=O)[C@H](CCCNC(=N)N)NC(=O)[C@H](CSSC[C@H](NC(=O)[C@@H](N)CC(=O)O)C(=O)N[C@@H](CC(C)C)C(=O)NCC(=O)N[C@@H](C)C(=O)N[C@@H](CCSC)C(=O)N[C@@H](CCCNC(=N)N)C(=O)N[C@@H](CCCCN)C(=O)N2)NC(=O)[C@H](CSSC[C@@H](C(=O)N[C@@H](CCCCN)C(=O)N[C@@H](Cc2ccc(O)cc2)C(=O)N[C@@H](Cc2cccc4ccccc24)C(=O)N[C@@H](Cc2ccccc2)C(N)=O)NC(=O)[C@H](Cc2c[nH]c4ccccc24)NC(=O)[C@H](CCCNC(=N)N)NC(=O)[C@H](Cc2c[nH]cn2)NC(=O)[C@H]([C@@H](C)O)NC(=O)[C@H](CCCNC(=N)N)NC(=O)[C@H](CO)NC3=O)NC(=O)[C@H](CCCCN)NC(=O)[C@H](CC(=O)O)NC(=O)[C@H](CC(N)=O)NC(=O)[C@H](CC(=O)O)NC(=O)[C@@H]2CCCN2C1=O [compound 420] (H-DCLGAMRKCIPDNDKCCRPNLVCSRTHRWCKY[1Nal]F-NH2; disulfide 2-17, 9-23, 16-30)
IC50 (hNav1.5; [2]): 7.5 µM
IC50 (hNav1.7; use-dependent block, hNav1.7): 200 nM
IC50 (hNav1.3; use-dependent block, hNav1.3): 320 nM

CCCCCCCC[C@@H]1NC(=O)CNC(=O)[C@H](CC(C)C)NC(=O)[C@@H](NC(=O)[C@@H](N)CC(=O)O)CSSC[C@@H]2NC(=O)[C@@H]3CSSC[C@@H](C(=O)N[C@@H](CCCCN)C(=O)N[C@@H](Cc4ccc(O)cc4)C(=O)N[C@H](C(=O)N[C@@H](Cc4ccccc4)C(N)=O)C(C)C)NC(=O)[C@H](Cc4c[nH]c5ccccc45)NC(=O)[C@H](CCCCN)NC(=O)[C@H](Cc4c[nH]cn4)NC(=O)[C@H]([C@@H](C)O)NC(=O)[C@H](CCCNC(=N)N)NC(=O)[C@H](CO)NC(=O)[C@H](CSSC[C@H](NC(=O)[C@H](CCCCN)NC(=O)[C@H](CCCNC(=N)N)NC(=O)[C@H](Cc4ccccc4)NC1=O)C(=O)N[C@@H]([C@@H](C)CC)C(=O)N1CCC[C@H]1C(=O)N[C@@H](CC(=O)O)C(=O)N[C@@H](CC(N)=O)C(=O)N[C@@H](CC(=O)O)C(=O)N[C@@H](CCCCN)C(=O)N3)NC(=O)[C@H](C(C)C)NC(=O)[C@H](CC(C)C)NC(=O)[C@H](CC(N)=O)NC(=O)[C@@H]1CCCN1C(=O)[C@H](CCCNC(=N)N)NC2=O [compound 608] (H-DCLG[Gly(octyl)]FRKCIPDNDKCCRPNLVCSRTHKWCKYVF-NH2; disulfide 2-17, 9-23, 16-30)
IC50 (hNav1.5; [2]): 20.2 µM
IC50 (hNav1.7; use-dependent block, hNav1.7): 11300 nM
IC50 (hNav1.3; use-dependent block, hNav1.3): 21800 nM

CC[C@H](C)[C@@H]1NC(=O)[C@@H]2CSSC[C@@H]3NC(=O)[C@H](C(C)C)NC(=O)[C@H](CC(C)C)NC(=O)[C@H](CC(N)=O)NC(=O)[C@@H]4CCCN4C(=O)[C@H](CCCNC(=N)N)NC(=O)[C@H](CSSC[C@H](NC(=O)[C@@H](N)CC(=O)O)C(=O)N[C@@H](CC(C)C)C(=O)NCC(=O)N[C@@H](C)C(=O)N[C@@H](CCSC)C(=O)N[C@@H](CCCNC(=N)N)C(=O)N[C@@H](CCCCN)C(=O)N2)NC(=O)[C@H](CSSC[C@@H](C(=O)N[C@@H](CCCCN)C(=O)N[C@@H](Cc2ccc(O)cc2)C(=O)N[C@@H](Cc2cccc4ccccc24)C(=O)N[C@@H](Cc2ccccc2)C(N)=O)NC(=O)[C@H](Cc2c[nH]c4ccccc24)NC(=O)[C@H](CCCCN)NC(=O)[C@H](Cc2c[nH]cn2)NC(=O)[C@H]([C@@H](C)O)NC(=O)[C@H](CCCNC(=N)N)NC(=O)[C@H](CO)NC3=O)NC(=O)[C@H](CCCCN)NC(=O)[C@H](CC(=O)O)NC(=O)[C@H](CC(N)=O)NC(=O)[C@H](CC(=O)O)NC(=O)[C@@H]2CCCN2C1=O [compound 258] (H-DCLGAMRKCIPDNDKCCRPNLVCSRTHKWCKY[1Nal]F-NH2; disulfide 2-17, 9-23, 16-30)
IC50 (hNav1.5; IWQ Use Nav1.5 (μM)): 5 µM
IC50 (hNav1.7; use-dependent block, hNav1.7): 380 nM
IC50 (hNav1.3; use-dependent block, hNav1.3): 800 nM

CC[C@H](C)[C@@H]1NC(=O)[C@@H]2CSSC[C@@H]3NC(=O)[C@H](Cc4ccccn4)NC(=O)[C@H](CC(C)C)NC(=O)[C@H](CC(N)=O)NC(=O)[C@@H]4CCCN4C(=O)[C@H](CCCNC(=N)N)NC(=O)[C@H](CSSC[C@H](NC(=O)[C@@H](N)CC(=O)O)C(=O)N[C@@H](CC(C)C)C(=O)NCC(=O)N[C@@H](Cc4ccccc4)C(=O)N[C@@H](CCSC)C(=O)N[C@@H](CCCNC(=N)N)C(=O)N[C@@H](CCCCN)C(=O)N2)NC(=O)[C@H](CSSC[C@@H](C(=O)N[C@@H](CCCCN)C(=O)N[C@@H](Cc2ccc(O)cc2)C(=O)N[C@H](C(=O)N[C@@H](Cc2ccccc2)C(N)=O)C(C)C)NC(=O)[C@H](Cc2c[nH]c4ccccc24)NC(=O)[C@H](CCCCN)NC(=O)[C@H](Cc2c[nH]cn2)NC(=O)[C@H]([C@@H](C)O)NC(=O)[C@H](CCCNC(=N)N)NC(=O)[C@H](CO)NC3=O)NC(=O)[C@H](CCCCN)NC(=O)[C@H](CC(=O)O)NC(=O)[C@H](CC(N)=O)NC(=O)[C@H](CC(=O)O)NC(=O)[C@@H]2CCCN2C1=O [compound 334] (H-DCLGFMRKCIPDNDKCCRPNL[2Pal]CSRTHKWCKYVF-NH2; disulfide 2-17, 9-23, 16-30)
IC50 (hNav1.5; [3]): 11 µM
IC50 (hNav1.7; Use): 330 nM
IC50 (hNav1.3; Use): 140 nM

CC[C@H](C)[C@@H]1NC(=O)[C@@H]2CSSC[C@@H]3NC(=O)[C@H](C(C)C)NC(=O)[C@H](CC(C)C)NC(=O)[C@H](CC(N)=O)NC(=O)[C@@H]4CCCN4C(=O)[C@H](CCCNC(=N)N)NC(=O)[C@H](CSSC[C@H](NC(=O)[C@@H](N)CC(=O)O)C(=O)N[C@@H](CC(C)C)C(=O)NCC(=O)N[C@@H](Cc4ccccc4)C(=O)N[C@@H](CCSC)C(=O)N[C@@H](CCCNC(=N)N)C(=O)N[C@@H](CCCCN)C(=O)N2)NC(=O)[C@H](CSSC[C@@H](C(=O)N[C@@H](CCCCN)C(=O)N[C@@H](Cc2ccc(O)cc2)C(=O)N[C@H](C(=O)N[C@@H](Cc2ccccc2)C(N)=O)C(C)C)NC(=O)[C@H](Cc2c[nH]c4ccccc24)NC(=O)[C@H](CCCCN)NC(=O)[C@H](Cc2c[nH]cn2)NC(=O)[C@H]([C@@H](C)O)NC(=O)[C@H](CCCNC(N)=O)NC(=O)[C@H](CO)NC3=O)NC(=O)[C@H](CCCCN)NC(=O)[C@H](CC(=O)O)NC(=O)[C@H](CC(N)=O)NC(=O)[C@H](CC(=O)O)NC(=O)[C@@H]2CCCN2C1=O [compound 117]
IC50 (hNav1.5; [3]): 8.87 µM
IC50 (hNav1.7; Use): 320 nM
IC50 (hNav1.3; Use): 510 nM
